From patent US20050197292A1, “Compositions and methods for treating T-cell mediated pathological conditions” (priority 2004, published 2005) come the findings set out here.

One assay has as its system CD4 T cells. Kind of assay: TCR-CD28 co-stimulated proliferation, [3H] thymidine incorporation, CD4 T cells. It counts as cell-based, human. The note with it: anti-CD3 150 ng/ml and anti-CD28 1 μg/ml coated, 72 h. The method, then:
(§1) 96-well plates were coated with the anti-CD3 and anti-CD28 mAb at 150 ng/ml and 1 μg/ml respectively in PBS overnight at 4° C., aspirated and coated with the control protein, CG57008-15, CG57008-12 or CG57008-14 for 4 hr at 37° C. Wells were aspirated and 150 μl of purified Human CD4+, CD8+ or polarized TH2 cells from healthy blood donors, or purified CD4+ or CD8+ T cells from B6 mice at a concentration of 0.7×10^6 cells/ml were added and cultured for 72 h at 37° C. Proliferation was measured by [^3H] thymidine incorporation by pulsing cells with 0.5 μCi of [^3H] thymidine 8 hr prior to harvesting. Cytokines were measured by ELISA using cells harvested at 72 hr.
In general terms: Dividing cells build labelled thymidine or BrdU into new DNA.

In another assay the test system is CD8 T cells. As to the kind of experiment: TCR-CD28 co-stimulated proliferation, [3H] thymidine incorporation, CD8 T cells. The format is cell-based, human. The note with it: anti-CD3 150 ng/ml and anti-CD28 1 μg/ml coated, 72 h. The method, then: as §1

With “CG201877-02 (ECD/FC): Tim1 - Mus musculus; Mature Igkappa, ECD, Fc, V5, His”, the “proliferation of CD4 T cells” value with CD4 T cells is “significantly inhibited”. For the same substance, the “proliferation of CD8 T cells” value in the assay on CD8 T cells is “significantly inhibited”.
